In experiment [1] the test system is MMP-9. The experiment can be described thus: Permanent MCAO in rats: MMP-9 in peri-infarct cortex (Western blot, gelatin zymography, immunohistochemistry). The following applies: for Expression of MMP-9 (immunohistochemistry): pMCAO, brain section; for Expression of MMP-9 (immunohistochemistry) / MMP-9 activity/levels (gelatin zymography): peri-infarct cortex at 72 hours; for Expression of MMP-9 (Western blot) / MMP-9 activity/levels (gelatin zymography): permanent MCAO; for Expression of MMP-9 (Western blot): 8 mg/kg i.p. 1 hour and s.c. 6 hours post-occlusion, peri-infarct cortex at 72 hours post-MCAO; for MMP-9 activity/levels (gelatin zymography): 8 mg/kg. The experiment is classed as in vivo, rat. From the text: (§1) Permanent focal cerebral ischemia is induced in the rat by direct ligation of the MCA. Peri-operative procedures and physiological monitoring are done similarly to those for thrombotic stroke surgery. Briefly, under anesthesia, the left CCA is isolated through a ventral midline neck incision and ligated permanently with a 4-0 surgical silk ligature. The left temporoparietal region of the head is shaved and a 2-cm incision is made vertically between the orbit and the ear canal. The underlying temporalis muscle is excised, and under direct visualization, the […] MCA is exposed through a 2-mm burr hole drilled 2 mm rostral to the fusion of the zygomatic arch with the squamosal bone. Drilling is performed under saline irrigation to the area throughout the procedure to prevent heat injury. […] The site of the occlusion is proximal to the MCA bifurcation, but distal to the origin of the lenticulostriate arteries. Using fine forceps, the dura and arachnoid overlying the MCA is opened and cut. The MCA is cauterized and cut permanently to […] recanalization using a bipolar electrocauterizer without damaging the brain surface. The temporalis muscle and skin is closed in layers, and rats allowed to recover from anesthesia on the heating pad.
(§2) All experimental treatments by injection are made in stock solutions using HBC (2-hydroxypropyl-β-cyclodextrin, 25% w/v solution in H2O) as the solvent. The HBC vehicle allows progesterone and allopregnanolone to be dissolved in a non-toxic aqueous solution. The initial dose of progesterone is given intraperitoneally for rapid absorption; all other injections are given subcutaneously. A simlar protocol may be followed for allopregnanolone.
(§3) Peri-infarct cortical tissue is processed for protein analysis. Tissues are homogenized in T-per (Pierce, Rockford, Ill.) containing protease inhibitor cocktail (P8340, Sigma). Homogenates are centrifuged for 15 minutes at 13,000 g. 40 μg of total protein is separated on 8-12% gel and transferred onto polyvinylidene difluoride (Millipore, Mass., USA; PVDF) membranes at 300 mA for 2 hours. To measure the level of immunoglobulin, the membranes were incubated overnight at 4° C. with anti Rat IgG conjugated to biotin. bEND 3 cells are subjected to hypoxia/reperfusion for 9 hours and then lysed on ice in 100 μl of RIPA buffer. Cell lysated are boiled and then electrophoresed in 12% SDS-PAGE acrylamide gels, transferred onto PVDF membranes, and incubated for 1 hour in TBS-T (tris-buffered saline and 0.1% Tween 20) containing 5% bovine serum albumin (BSA). Membranes are then incubated overnight at 4° C. with primary antibodies against occludin (Invitrogen, Calif., USA; 1:1000), claudin-5 (Invitrogen; 1:1000), and ZO-1 (Invitrogen; 1:1000), washed in TBS-T, and incubated for 1 hour at room temperature with corresponding peroxidase-conjugated secondary antibodies (1:5000; KPL, Gaithersburg, Md.). All blots are stripped and re-incubated with β-actin antibodies (1:5000, Sigma) as a loading control. The peroxidase reaction is developed with an ECL-plus detection kit (Amersham BioScience, Piscataway, N.J.). Intensity of the bands is measured by an Image Gauge version. 4.0 program (FUJI Photo Film Co., Ltd).
(§4) Rats were randomly assigned to receive progesterone (n=5), allopregnanolone (n=5), or vehicle (n=5). Progesterone and allopregnanolone (8 mg/kg) were dissolved in 22.5% 2-hydroxypropyl-β-cyclodextrin (25% w/v solution in water) (HBC) and given by intraperitoneal injection 1 hour post-occlusion. An additional 8 mg/kg subcutaneous injection was given 6 hours after middle cerebral artery occlusion (MCAO).
(§5) The rats were euthanized at 72 hours post-MCAO. The peri-infarct region was sampled using a 4-mm tissue punch.
For orientation: Immunoblotting shows a protein as a band on a membrane.

The test system of a further experiment is MMP-2. The experiment can be described thus: Permanent MCAO in rats: MMP-2 in peri-infarct cortex (Western blot, gelatin zymography, immunohistochemistry). The class given is in vivo, rat. The following applies: for Expression of MMP-2 (immunohistochemistry): pMCAO, brain section; for Expression of MMP-2 (immunohistochemistry) / MMP-2 activity/levels (gelatin zymography): peri-infarct cortex at 72 hours; for Expression of MMP-2 (Western blot) / MMP-2 activity/levels (gelatin zymography): permanent MCAO; for Expression of MMP-2 (Western blot): 8 mg/kg i.p. 1 hour and s.c. 6 hours post-occlusion, peri-infarct cortex at 72 hours post-MCAO; for MMP-2 activity/levels (gelatin zymography): 8 mg/kg.
Text: as §1, §2, §3, §4, §5

In experiment [2] the test system is blood-brain barrier (BBB). The experiment can be described thus: BBB disruption: serum IgG in ischemic cortex by Western blot. The experiment is classed as in vivo, rat. The note with it: progesterone 8 mg/kg, s.c.; with tPA; 24 hours after injury.
In experiment [3] the test system is MMP-9. The experiment can be described thus: MMP-9 levels in bEND3 cells exposed to H/R and tPA. The class given is cell-based, mouse. The following applies: bEND3 cells exposed to H/R and tPA for 9 hours; progesterone pretreatment. As to the method:
The bEnd 3 cells grown to confluence on coverslips are subjected to the indicated treatments. For […], cells are washed three times with PBS, fixed in 3% paraformaldehyde for 10 minutes, permeabilized with 02% Triton X-100 in PBS for 10 minutes and blocked with 10% BSA and 0.1% Triton X-100 in PBS for 1 hour. After washing with PBS, the monolyers are incubated with a primary antibody for occludin (Invitrogen, 1:200) and MMP-9 (Abeam, Mass., USA, 1:200) overnight at 4° C. The cell monolayers are then washed 3 times with PBS and incubated with Alexa Fluor 488 anti-rabbit and orange anti-mouse (Molecular Probes, Eugene, Oreg.) for 1 hour. After washing in PBS, the coverslips are mounted on glass slides with Vectasheild with dapi (Vecta Laboratories).
(§6) To mimic ischemia-like conditions in vitro, immortalized mouse brain endothelial (bEND3) cells were exposed to 6 hours of hypoxia and 3 hours of reoxygeneation with or without the administration of tPA at a dose of 20 μ/ml. […] BBB integrity was evaluated by transendothelial membrane electrical resistance (TEER) measurement, MMP-9 activity, and the alteration of tight junction proteins following in vitro H/R injury.
To directly determine MMP-9 activity after ischemia, proteolytic activity of MMP-9 was measured using a fluorescence resonance energy transfer peptide. […]

A further experiment has as its system bEND3 cells. The experiment can be described thus: Transendothelial electrical resistance (TEER) after hypoxia/reperfusion (H/R). The class given is cell-based, mouse. As to the method:
(§7) An immortalized mouse brain endothelial cell line (bEND 3) is purchased from American Type Culture Collection (ATCC, VA, USA) and cultured in Dulbecco's modified Eagle Medium (DMEM, ATCC) supplemented with 10% fetal bovine serum (ATCC). bEND 3 cells are seeded onto the luminal side of a filter (0.4 μm pore size; Corning, Lowell, MCA) coated with fibronectin (5 μg/ml) in 12-well plates for a transendothelial electrical resistance (TEER) test; and in 100-mm dishes for Western blot studies. Cell cultures are incubated at 37° C. in a 5%/95% mixture of CO2 and atmospheric air, and the medium is replaced every 3 days.
The electrical resistance across the membrane are measured using an Millicell ERS Voltohmmeter (Millipore, Billerica, Mass.). The extracellular matrix-treated Transwell inserts are placed in 12-well plates containing culture medium and then used to measure the background resistance. The resistance measurements of these blank filters are then subtracted from those of filters with cells. Values are shown as Q. based on culture inserts.
To mimic ischemia-like conditions in vitro, immortalized mouse brain endothelial (bEND3) cells were exposed to 6 hours of hypoxia and 3 hours of reoxygeneation with or without the administration of tPA at a dose of 20 μ/ml. Reoxygenation was initiated by adding glucose (4.5 g/L)-containing phenol red-free DMEM for 3 hours at 37° C. in 95% air and 5% CO2. The cells were treated with various concentrations progesterone for 24 hours before hypoxia/reperfusion (H/R). BBB integrity was evaluated by transendothelial membrane electrical resistance (TEER) measurement, MMP-9 activity, and the alteration of tight junction proteins following in vitro H/R injury.

The test system of experiment [4] is MMP-9. The experiment can be described thus: Active MMP-9 fluorometric FRET peptide assay of ischemic cortex lysates. The class given is in vivo, rat. The note with it: 24 hours after ischemia; tPA at 4.5 hours; vs control and tMCAO groups. As to the method: A Fluorimetric SensoLyte™ 490 kit (AnaSpec Corp., San Jose, Calif. USA) is used to quantify the specific enzymetic activity of active MMP-9 by using a fluorescence resonance energy transfer peptide containing a fluorescent donor and quenching acceptor (Lin, Hou et al. 2008). The samples (100 μg) are placed in a 96-well plate containing 50 μl of assay buffer. The proteolytic resonance energy transfer peptide is expressed as a fold change in fluorescence intensity at excitation of 355 nm/emission of 460 nm.
For in vivo evaluation, Male SD rats were subjected to MCAO, reperfused at 4.5 hours and then treated with tPA only (5 mg/kg body weight via femoral vein) at 4.5 hours post-stroke or with progesterone (intraperitoneally) at 2 hours post-stroke plus tPA at 4.5 hours post-stroke. Rats were killed at 24 hours post-ischemia and their brains perfused for evaluation of cerebral hemorrhage, brain swelling, BBB permeability, MMP-9 activity, and the alteration of tight junction proteins.
To directly determine MMP-9 activity after ischemia, proteolytic activity of MMP-9 was measured using a fluorescence resonance energy transfer peptide. […] Consistent with the Western blot results, exposure of cells to H/R and tPA for 9 hours reduced the detected levels of occludin, as compared to control bEND 3 cells, while MMP-9 levels were increased in cells exposed to H/R and tPA for 9 hours.

A further experiment concerns claudin-5. The experiment can be described thus: Claudin-5 in H/R-treated bEND3 cells (Western blot). The experiment is classed as cell-based, mouse. The following applies: tPA with H/R. As to the method: as §7
Peri-infarct cortical tissue is processed for protein analysis. Tissues are homogenized in T-per (Pierce, Rockford, Ill.) containing protease inhibitor cocktail (P8340, Sigma). Homogenates are centrifuged for 15 minutes at 13,000 g. […] Intensity of the bands is measured by an Image Gauge version. […]
as §6

The subject of another experiment is occludin. The experiment can be described thus: Occludin in H/R-treated bEND3 cells (Western blot, immunofluorescence). The experiment is classed as cell-based, mouse. As to the method: as §7, §3
The bEnd 3 cells grown to confluence on coverslips are subjected to the indicated treatments. […]
as §6

`CC(=O)[C@H]1CC[C@H]2[C@@H]3CC[C@H]4C[C@H](O)CC[C@]4(C)[C@H]3CC[C@]12C` [allopregnanolone, 3α-hydroxy-5α-pregnan-20-one]: in the experiment on MMP-9 [1], the “Expression of MMP-9 (immunohistochemistry)” value is listed as “reduced”, the “Expression of MMP-9 (Western blot)” value is “decreased” and the “MMP-9 activity/levels (gelatin zymography)” value is reported as “decreased”. In addition, in the experiment with MMP-2, the “Expression of MMP-2 (immunohistochemistry)” value was “reduced”, the “Expression of MMP-2 (Western blot)” value is on record as “decreased” and the “MMP-2 activity/levels (gelatin zymography)” value is given as “decreased”.
For `CC(=O)[C@H]1CC[C@H]2[C@@H]3CCC4=CC(=O)CC[C@]4(C)[C@H]3CC[C@]12C` [progesterone, pregn-4-ene-3,20-dione], the “Levels of serum IgG in ischemic cortex” value in experiment [2] was “reduced”. Further, in the experiment on MMP-9 [3], the MMP-9 levels result is “completely inhibited”. Moreover, the “H/R-induced decrease of TEER” value in the experiment with bEND3 cells (pretreatment with 5, 10 or 20 μM, H/R without tPA) is given as “significantly prevented”. Further, the “TEER values compared to untreated” value with bEND3 cells (progesterone 20 μM, H/R with tPA (FIG. 3C)) is on record as “significantly higher”. Besides, in the experiment on MMP-9 [4], the “MMP-9 activity (FRET peptide)” value was “inhibited”. In the experiment with MMP-9 [1], the “Expression of MMP-9 (immunohistochemistry)” value is given as “reduced”, the “Expression of MMP-9 (Western blot)” value is given as “decreased” and the “MMP-9 activity/levels (gelatin zymography)” value is listed as “decreased”. Further, in the experiment on claudin-5, the “Expression of 23-kDa claudin-5 (Western blot)” value is reported as “significantly prevented the decrease”. In addition, the “Detected levels of occludin (immunofluorescence)” value in the experiment with occludin (bEND3 cells exposed to H/R and tPA for 9 hours, progesterone pretreatment) is recorded as “completely inhibited”. Also, the “Expression of occludin (Western blot)” value in the experiment on occludin (bEND3 cells, tPA with H/R) was “significantly prevented the decrease”. In the experiment on MMP-2, the “Expression of MMP-2 (immunohistochemistry)” value was “reduced”, the “Expression of MMP-2 (Western blot)” value is “decreased” and the “MMP-2 activity/levels (gelatin zymography)” value is “decreased”.

The values are drawn from patent US20140127185A1, “METHODS AND COMPOSITIONS USING NEUROPROTECTIVE STEROIDS AND THROMBOLYTIC AGENTS” (priority 2012, published 2014).
